Experimental data: ChEMBL document CHEMBL3045424, “Synthesis and antimalarial activity evaluation of some isoquine analogues” (2011)

Legend:
Plasmodium falciparum [1] = assay: Antimalarial activity against chloroquine-sensitive Plasmodium falciparum 3D7 infected O positive human red blood cells assessed as dead rings and schizonts at 50 ug/ml after 40 hr by Giemsa staining; assay type: functional
Plasmodium falciparum [2] = assay: Antimalarial activity against chloroquine-sensitive Plasmodium falciparum 3D7 infected O positive human red blood cells assessed as dead rings and schizonts at 0.4 ug/ml after 40 hr by Giemsa staining; assay type: functional

`Oc1ccc(NCc2ccc(Nc3ccnc4cc(Cl)ccc34)cc2O)cc1` gave an Activity (Plasmodium falciparum [1]) of 28.5%.

For `Oc1cc(Nc2ccnc3cc(Cl)ccc23)ccc1CNc1ccc(Br)cc1F`, the Activity (Plasmodium falciparum [1]) was 6.5%.

Compound `Oc1cc(Nc2ccnc3cc(Cl)ccc23)ccc1CNC1CCNCC1` has an Activity (Plasmodium falciparum [1]) of 33%.

With `OCCNCc1ccc(Nc2ccnc3cc(Cl)ccc23)cc1O` the Activity (Plasmodium falciparum [1]) was 36.5%.

In the case of `NC(=O)NCc1ccc(Nc2ccnc3cc(Cl)ccc23)cc1O`, the Activity (Plasmodium falciparum [1]) is reported as 24%.

In the case of `Oc1cc(Nc2ccnc3cc(Cl)ccc23)ccc1CNc1ccc(F)cc1`, the Activity (Plasmodium falciparum [1]) is reported as 25.5%.

`O=C(O)c1ccc(NCc2ccc(Nc3ccnc4cc(Cl)ccc34)cc2O)cc1` showed an Activity (Plasmodium falciparum [1]) of 34%.

`CCN(CC)CCCC(C)Nc1ccnc2cc(Cl)ccc12` (stereo not drawn) [CHLOROQUINE] was tested, and the Activity (Plasmodium falciparum [2]) was 68.5%.
